Measurements published in US11008295B2, “Compounds having antiinfective, antitumoral and antifungal activity” (priority 2017, dated 2021).

Legend:
Assay in all cases: Kirby-Bauer disk diffusion susceptibility test
A. baumannii = assay type: cell-based
Method: (§1) Bacterial strains, from clinical origin, were supplied by the National Center for Microbiology, Institute of Health Carlos III (Majadahonda, Madrid). They are detailed in Table I.
(§2) Bacterial cells suspension in sterile saline was prepared from a culture of 24-72 h, depending on bacterial species, in Mueller-Hinton Agar with 5% sheep blood. Each suspension was adjusted to a fixed size inoculum of 1-5×10^8 CFU/ml with a spectrophotometer (Ferraro, M J National Committee for Clinical Laboratory Standards. 2000).
(§3) Kirby-Bauer disk diffusion susceptibility test protocol was utilized to determine the sensitivity or resistance of pathogenic bacteria against the compounds and others antibiotics. The absence of growth around the disks is an indirect measure of the ability of this compound to inhibit an organism (Kirby, W. et al., Antibiotics Annu. 1956-1957:892). After 18 to 72 hours of incubation at […], with or without CO2, under aerobic or anaerobic conditions, depending on the bacterial species, halo of growth inhibition were obtained and evaluated.
(§4) Interpretation of susceptibility and resistance was based on the presence or absence of a zone of inhibition surrounding the disk. Kirby-Bauer disk diffusion susceptibility test is a common method which uses antibiotic-impregnated wafers to test whether bacteria are affected by antibiotics. The size of the zone of inhibition depends on how effective the antibiotic is at stopping the growth of the bacterium. A stronger antibiotic will create a larger zone, because a lower concentration of the antibiotic is enough to stop growth.

P. aeruginosa = assay type: cell-based
Method: as §1, §2, §3, §4

T. pulmonis = assay type: cell-based, Tsukamurella pulmonis
Method: as §1, §2, §3, §4

N. cyriacigeorgica = assay type: cell-based
Method: as §1, §2, §3, §4

E. coli = assay type: cell-based
Method: as §1, §2, §3, §4

E. faecalis = assay type: cell-based
Method: as §1, §2, §3, §4

E. faecium = assay type: cell-based
Method: as §1, §2, §3, §4

N. carnea = assay type: cell-based, Nocardia carnea
Method: as §1, §2, §3, §4

M. abscessus = assay type: cell-based, Mycobacterium abscessus; conditions: M. abscessus strain 690, isolation year 2012
Method: as §1, §2, §3, §4

M. chelonae = assay type: cell-based; conditions: M. chelonae strain 870, isolation year 2011
Method: as §1, §2, §3, §4

M. fortuitum = assay type: cell-based; conditions: M. fortuitum strain 1080, isolation year 2011
Method: as §1, §2, §3, §4

B. cereus = assay type: cell-based, Bacillus cereus
Method: as §1, §2, §3, §4

S. epidermidis = assay type: cell-based
Method: as §1, §2, §3, §4

S. aureus = assay type: cell-based
Method: as §1, §2, §3, §4

[1] = A. baumannii strain 300, isolation year 2001
[2] = A. baumannii strain 1301, isolation year 2009
[3] = P. aeruginosa strain 96, isolation year 2014
[4] = T. pulmonis strain 40, isolation year 2015
[5] = T. pulmonis strain 1991, isolation year 2009
[6] = N cyriacigeorgica strain 199, isolation year 2005
[7] = N. cyriacigeorgica strain 30, isolation year 2005
[8] = E. coli strain 29, isolation year 2012
[9] = E. coli strain 305, isolation year 2008
[10] = E. faecalis strain 52, isolation year 2006
[11] = E. faecalis strain 1052, isolation year 2008
[12] = E. faecium strain 26, isolation year 2012
[13] = E. faecium strain 209, isolation year 2015
[14] = P. aeruginosa strain 115, isolation year 2013
[15] = N. carnea strain 40, isolation year 2011
[16] = N. carnea strain 769, isolation year 2009
[17] = B. cereus strain 25, isolation year 2014
[18] = B. cereus strain 182, isolation year 2013
[19] = S. epidermidis strain 188, isolation year 2009
[20] = S. epidermidis strain 982, isolation year 2006
[21] = S. aureus strain 282, isolation year 2005
[22] = S. aureus strain 890, isolation year 2010
Also: key: I = intermediate activity; S = susceptibility; R = Resistance.

Row | Molecule | Sensitivity or resistance of the strain to the antibiotic (A. baumannii; [1]) | Sensitivity or resistance of the strain to the antibiotic (A. baumannii; [2]) | Sensitivity or resistance of the strain to the antibiotic (P. aeruginosa; [3]) | Sensitivity or resistance of the strain to the antibiotic (T. pulmonis; [4]) | Sensitivity or resistance of the strain to the antibiotic (T. pulmonis; [5]) | Sensitivity or resistance of the strain to the antibiotic (N. cyriacigeorgica; [6]) | Sensitivity or resistance of the strain to the antibiotic (N. cyriacigeorgica; [7]) | Sensitivity or resistance of the strain to the antibiotic (E. coli; [8]) | Sensitivity or resistance of the strain to the antibiotic (E. coli; [9]) | Sensitivity or resistance of the strain to the antibiotic (E. faecalis; [10]) | Sensitivity or resistance of the strain to the antibiotic (E. faecalis; [11]) | Sensitivity or resistance of the strain to the antibiotic (E. faecium; [12]) | Sensitivity or resistance of the strain to the antibiotic (E. faecium; [13]) | Sensitivity or resistance of the strain to the antibiotic (N. carnea; [15]) | Sensitivity or resistance of the strain to the antibiotic (N. carnea; [16]) | Sensitivity or resistance of the strain to the antibiotic (M. abscessus) | Sensitivity or resistance of the strain to the antibiotic (M. chelonae) | Sensitivity or resistance of the strain to the antibiotic (M. fortuitum) | also measured
1 | NC[C@H]1O[C@H](O[C@H]2[C@H](O)[C@@H](O[C@H]3O[C@H](CO)[C@@H](O)[C@H](N)[C@H]3O)[C@H](N)C[C@@H]2N)[C@H](N)C[C@@H]1O [TOB, Tobramycin] | S | S | S | – | – | – | – | – | – | – | – | – | – | – | – | – | – | – | –
2 | CO/N=C(\C(=O)N[C@@H]1C(=O)N2C(C(=O)O)=C(COC(C)=O)CS[C@H]12)c1csc(N)n1 [CTX, Cefotaxime] | – | – | S | R | S | R | S | S | R | R | R | R | R | S | S | – | – | – | Sensitivity or resistance of the strain to the antibiotic (P. aeruginosa; [14]): S
3 | CO/N=C(\C(=O)N[C@@H]1C(=O)N2C(C(=O)O)=C(CSc3nc(=O)c(O)nn3C)CS[C@H]12)c1csc(N)n1 [CEF, Ceftriazone] | R | R | R | – | – | – | – | – | – | – | – | – | – | – | – | – | – | – | –
4 | Cotrimoxazole [SxT] | – | – | – | R | S | S | S | – | – | – | – | – | – | R | R | S | R | S | –
5 | Penicillin | – | – | – | – | – | – | – | R | R | R | R | R | R | – | – | R | R | R | Sensitivity or resistance of the strain to the antibiotic (B. cereus; [17]): S; Sensitivity or resistance of the strain to the antibiotic (B. cereus; [18]): S
6 | C[C@@H](O)[C@H]1C(=O)N2C(C(=O)O)=C(S[C@@H]3CN[C@H](C(=O)N(C)C)C3)[C@H](C)[C@H]12 [MER, Meropenem] | R | S | R | – | – | – | – | – | – | – | – | – | – | – | – | – | – | – | –
7 | NCC[C@H](O)C(=O)N[C@@H]1C[C@H](N)[C@@H](O[C@H]2O[C@H](CN)[C@@H](O)[C@H](O)[C@H]2O)[C@H](O)[C@H]1O[C@H]1O[C@H](CO)[C@@H](O)[C@H](N)[C@H]1O [AMK, Amikacin] | R | S | S | R | S | R | S | S | S | S | S | S | R | R | S | – | – | – | Sensitivity or resistance of the strain to the antibiotic (S. epidermidis; [19]): S; Sensitivity or resistance of the strain to the antibiotic (S. epidermidis; [20]): S; Sensitivity or resistance of the strain to the antibiotic (S. aureus; [21]): S; Sensitivity or resistance of the strain to the antibiotic (S. aureus; [22]): S; Sensitivity or resistance of the strain to the antibiotic (P. aeruginosa; [14]): S
8 | CC[C@H]1OC(=O)[C@H](C)[C@@H](O[C@H]2C[C@@](C)(OC)[C@@H](O)[C@H](C)O2)[C@H](C)[C@@H](O[C@@H]2O[C@H](C)C[C@H](N(C)C)[C@H]2O)[C@](C)(O)C[C@@H](C)C(=O)[C@H](C)[C@@H](O)[C@]1(C)O [ERI, Erythromycin] | – | – | – | R | S | R | R | S | S | – | – | – | – | R | R | S | R | R | Sensitivity or resistance of the strain to the antibiotic (B. cereus; [17]): R; Sensitivity or resistance of the strain to the antibiotic (B. cereus; [18]): R; Sensitivity or resistance of the strain to the antibiotic (S. epidermidis; [19]): S; Sensitivity or resistance of the strain to the antibiotic (S. epidermidis; [20]): R; Sensitivity or resistance of the strain to the antibiotic (S. aureus; [21]): R; Sensitivity or resistance of the strain to the antibiotic (S. aureus; [22]): R
9 | CC(=O)NC[C@H]1CN(c2ccc(N3CCOCC3)c(F)c2)C(=O)O1 [LIN, Linezolid] | – | – | S | R | S | S | S | – | – | – | – | – | – | S | S | S | R | R | –
10 | C[C@@H](O)[C@H]1C(=O)N2C(C(=O)O)=C(SCCN=CN)C[C@H]12 [IMP, Imipenem] | R | S | – | S | S | R | S | S | S | – | – | – | – | R | S | R | R | R | –
